Laboratory results: patent US8987201B2, “Black bear parathyroid hormone and methods of using black bear parathyroid hormone” (Michigan Technological University, priority 2009, dated 2015)
Marks after values point to notes of the source that are not given here.

What was measured:
rats = conditions: cited from earlier work
[1] = system: men and women with age-related osteoporosis; conditions: 20-30% of cortical and cancellous bone lost; cited from earlier work
Male Swiss-Webster mice [2] = experiment: Cortical bone dynamic histomorphometry in the femur (calcein labels); type: in vivo, mouse; conditions: femoral midshaft, 2.5 nmol/kg s.c., 8 weeks, SD in parentheses
Excerpt: (§1) All handling procedures and experiments were approved by the Michigan Technological University Institutional Animal Care and Use Committees. Male Swiss-Webster mice were obtained from a commercial breeder (Harlan, Indianapolis, Ind.). All animals were maintained on a 12-h light/12-h dark cycle, and were permitted free access to water and food containing 0.95% calcium (Purina Rodent Diet #5001).
(§2) In the first experiment, 11 wk old mice received daily (5 days/week) subcutaneous injections of 2.5 nmol/kg PTH 1-34 (hPTH 1-34 or bbPTH 1-34) or acidic saline vehicle (0.15 M NaCl+0.001 N HCl) for 8 weeks (n=10 mice/group). In the second experiment, 12 wk old mice received daily (5 days/week) subcutaneous injections of 2.5 nmol/kg PTH 1-84 (hPTH 1-84 or bbPTH 1-84) or acidic saline vehicle for 8 weeks (n=10 mice/group). All PTH- and vehicle-treated animals received subcutaneous injections of calcein at a dosage of 10 mg/kg on days 12 and 3 before death to label mineralizing bone surfaces. Twenty-four hours following the last treatment injection, mice were sacrificed by carbon dioxide asphyxiation. Right femurs were fixed in 10% neutral buffered formalin. Left femurs were wrapped in 0.15M saline soaked gauze and stored at −20 deg C. Left tibias were stored in 70% ethanol at 4 deg C.
(§3) Following the bending test, the left femoral diaphyses were ashed in a furnace to determine mineral content (ash fraction). Right femoral diaphyses were embedded in methyl methacrylate and sectioned with a diamond saw to expose the midshaft cross-section. Images of the midshaft cross-sections were captured using a digital camera (Spot Insight QE, Diagnostic Instruments Inc., Sterling Heights, Mich.), and Scion Image analysis software (Scion Corporation, Frederick, Md.) was used to calculate the periosteal area (Ps.Ar), cortical area (Ct.Ar), and endosteal area (Es.Ar) for each sample. Cortical bone thickness (Ct.Th) was calculated in 0.1 mm increments for each anatomical quadrant and for the entire cross-section using image analysis software (Bioquant Osteo, Nashville, Tenn.). Thin sections from the midshaft of the right femur were ground to a thickness of 50 μm and mounted on glass slides. Images of calcein labels were captured at 100× magnification and periosteal and endosteal mineral apposition rates (Ps.MAR and Es.MAR, respectively) and mineralizing surfaces (Ps.MS/BS and Es.MS/MS) were quantified (Bioquant) for each femur.
(§4) All bone geometrical, architectural, and mineral properties were normalized by body mass to account for potential variation in animal size (31-33). Trabecular bone properties quantified by micro-computed tomography were compared by ANOVA between vehicle, bear, and human PTH-treated mice within each study (PTH 1-34 or PTH 1-84). The microCT parameters were not directly compared between the PTH 1-34 and PTH 1-84 studies because analyses were conducted on different microCT machines. For all other bone properties, all six experimental groups (from both the PTH 1-34 and PTH 1-84 studies) were compared with ANOVA and Fisher's PLSD. A significance of p<0.05 was used for all comparisons.

[3] = system: ovariectomized (OVX) Sprague-Dawley rats; experiment: In vivo effects of human PTH1-84 and bear PTH1-84 in ovariectomized rats; parameters: species or system rat; conditions: 2.5 nmol/kg s.c., eight weeks
Experimental: Thirty female, 2.5-month old Sprague-Dawley rats were ovariectomized (OVX) at the commercial breeding facility The OVX animals were randomly assigned into 3 groups of 10 animals per group for further experiments.
Six weeks after the OVX procedure, the rats were injected subcutaneously for an eight-week period (daily for five days per week) with vehicle (saline) or 2.5 nmol/kg bear or human PTH1-84. Animals were euthanized 24 hours after the last injection. Samples were obtained from the euthanized animals for further analysis.
Femur bending strength and proximal tibia trabecular architecture were investigated as described in Example 12.

[4] = system: human fetal osteoblasts (hFOB); experiment: Serum starvation cell death in human fetal osteoblasts (trypan blue); type: cell-based; conditions: 100 nM for 1 hour before serum starvation for 24 hours, preliminary studies, p<0.0001
Experimental: All PTH peptides used in the current study attenuated apoptotic signaling induced by serum starvation in vitro (FIG. 19). bbPTH 1-34 reduced apoptotic signaling in pre-osteoblastic cells more than human PTH (FIG. 19). Recently, we found similar results with preliminary studies in human fetal osteoblasts (hFOB). Serum starvation for 24 hours increased cell death in hFOB (confirmed via trypan blue staining), but pretreatment of hFOB cells with 100 nM PTH 1-34 or 1-84 for 1 hour before starvation reduced percent cell death (percentage change in cell death compared to vehicle pretreatment, hPTH 1-34: −18%, bbPTH 1-34: −25%, hPTH 1-84: −17%, bbPTH 1-84: −21%; p<0.0001; data not shown). […] However, although bbPTH 1-84 was less anti-apoptotic than bbPTH 1-34 and hPTH 1-34 in vitro (FIG. 19) it caused the greatest increases in cortical and trabecular bone mass in the in vivo studies (Table 1, Table 2).

Male Swiss-Webster mice [5] = experiment: Trabecular bone structure and mineralization in the proximal tibia (micro-computed tomography); type: in vivo, mouse; conditions: PTH 1-84 study: 12 wk old mice, 8 weeks, proximal tibia, normalized by body mass
Excerpt: as §1, §2
Trabecular bone architecture and mineralization were evaluated in the left proximal tibial metaphysis (0.7 mm distal to the growth plate) using micro-computed tomography. Tibias from experiment 1 were scanned on a μCT35 scanner (Scanco Medical AG, Basserdorf, Switzerland) at 3.5 μm (high) resolution. Tibias from experiment 2 were scanned on a μCT40 scanner (Scanco Medical AG, Basserdorf, Switzerland) at 7 μm (high) resolution. Bones were scanned in 70% ethanol. Trabecular bone volume fraction (BV/TV, %), trabecular number (Tb.N, mm^−1), trabecular thickness (Tb.Th, m), trabecular separation (Tb.Sp, m), trabecular apparent mineral density (App.Mn.Dn, mgHA/cm^3) and trabecular tissue mineral density (Mat.Mn.Dn, mgHA/cm^3) were computed using the manufacturer's software.
as §4

MC3T3 subclone 4 cells = experiment: PTH attenuation of serum-starvation induced caspase-3/7 activity; type: cell-based, mouse; conditions: all concentrations pooled; bbPTH 1-34 vs hPTH 1-34 p=0.006, vs either PTH 1-84 p≦0.018; bbPTH 1-84 vs hPTH 1-84 p=0.090
Experimental: MC3T3 subclone 4 cells (ATCC, CRL-2593) were maintained in standard culture media (89% alpha-minimum essential media, 1% penicillin/streptomycin, and 10% FBS) at 37° C. in 5% CO2. Cells were not used beyond passage 30.
MC3T3 cells were seeded at a density of 20,000 cells/well in 96-well plates and allowed to attach overnight. Culture media was then aspirated and replaced with 100 μl of culture media containing 10% FBS and either vehicle (PBS) or PTH (10-100 nM) for one hour, after which media was aspirated and cells were washed with PBS to remove residual serum. To induce apoptosis, cells were incubated in control or serum-free media for 6 hours. Replacement media contained 89% alpha-minimum essential media, 1% penicillin/streptomycin, and either 10% FBS (control media) or 0% FBS (starvation media). After starvation, media was aspirated, cells were washed with PBS, and 50 μl of fresh PBS was added to each well. Caspase-3/7 activity was determined by cleavage of a DEVD substrate (Caspase-Glo 3/7 Assay, #G8093, Promega Corporation). Measured luminescence values were fit to a standard curve prepared with known concentrations of recombinant human caspase-3 (#SE-169, BIOMOL Research Laboratories Inc.). Five wells of each treatment were run per 96-well plate, and procedures were repeated on a minimum of 10 plates. […]

Male Swiss-Webster mice [6] = experiment: Cortical bone mineral content (ash fraction) and geometrical properties of the femur; type: in vivo, mouse; conditions: femoral midshaft, 2.5 nmol/kg s.c., 8 weeks, normalized by body mass, SD in parentheses
Excerpt: as §1, §2, §3, §4

procollagen-1 mRNA = conditions: Nasu et al., 1998; cited from earlier work

Substance: ALX1-11: recombinant human PTH 1-84 (NPS Pharmaceuticals), under consideration for approval by the FDA
- osteosarcoma in rats (rats; long-term usage): generates osteosarcoma
- bone recovered during the suggested treatment regimen [1]: 8%

Substance: human PTH1-84 [hPTH 1-84]
- Endosteal MAR (Male Swiss-Webster mice [2]): 0.62 ( ).39)
- Endosteal MS/BS (Male Swiss-Webster mice [2]): 32.1 (19.4)
- Periosteal MAR (Male Swiss-Webster mice [2]): 0.60 (0.40)
- Periosteal MS/BS (Male Swiss-Webster mice [2]): 20.2 (16.7)
- rate of carcinogenicity compared to human PTH 1-34 (rats; rat, in vivo): lower rate of carcinogenicity
- bone volume fraction / trabecular bone volume [3]: equivalently increase
- percentage change in cell death compared to vehicle pretreatment [4]: −17%
- BV/TV (Male Swiss-Webster mice [5]; 2.5 nmol/kg s.c. daily 5 days/week): 1.34 %/kg
- App. Mn. Dn (Male Swiss-Webster mice [5]; 2.5 nmol/kg s.c.): 2513 ^b mgHA/(cm^3*kg)
- Mat. Mn. Dn. (Male Swiss-Webster mice [5]; 2.5 nmol/kg s.c.): 29810 mgHA/(cm^3*kg)
- Tb. N (Male Swiss-Webster mice [5]; 2.5 nmol/kg s.c.): 98.7 1/mm*kg
- Tb. Sp (Male Swiss-Webster mice [5]; 2.5 nmol/kg s.c.): 9.57 mm/kg
- Tb. Th (Male Swiss-Webster mice [5]; 2.5 nmol/kg s.c.): 1.26 mm/kg
- caspase-3/7 activity, comparison between peptide groups (MC3T3 subclone 4 cells): lower levels of apoptosis
- Ct.Ar (Male Swiss-Webster mice [6]): 29.0 (3.7) mm^2/kg
- Ct.Th (Male Swiss-Webster mice [6]): 3.41 (0.59)^a mm/kg
- Es.Ar (Male Swiss-Webster mice [6]): 25.6 (3.3) mm^2/kg
- Ps.Ar (Male Swiss-Webster mice [6]): 54.6 (4.4)^b,c mm^2/kg
- production of procollagen-1 mRNA (procollagen-1 mRNA): does not
